Data as given in publication PMC4471902, “Block of NMDA receptor channels by endogenous neurosteroids: implications for the agonist induced conformational states of the channel vestibule” (Scientific Reports, 2015).
Where a name gives a salt, the structure may show the parent alone.

Experiment: Steroid concentration in the cytoplasmic membrane (erythrocyte membrane ghosts, HPLC-MS)
Assay type: physicochemical, rat
Procedure: All animal manipulations were conducted in accordance with the Animal Protection Code of the Czech Republic and corresponding directives of the European Community Council (2010/63/EC). Experiments were approved by the Animal Care and Use Committee of the Institute of Physiology of the Academy of Sciences of the Czech Republic. Blood was collected from one adult Wistar rat, heparinized, and spun down at 1,000 g for 10 min. Cells were washed once with PBS, briefly spun down and the pellet resuspended in a minimum amount of ECS. Cells were counted and 200 μl aliquots (~3*10^9 cells) were taken for the experiment. Cell membranes were prepared by 30 min erythrocyte lysis in distilled water followed by centrifugation at 25,000 g for 10 min and resuspension in 200 μl of ECS. Cell membranes were incubated for 2 min with PA-S solution in ECS at the final volume of 500 μl, followed by a spin down at 20,000 g for 2 min. Supernatants were taken for liquid chromatography-mass spectrometry analysis (HPLC-MS). Solution of PA-S without membranes served as a control. […]
PA-S concentration was assessed in ECS to which steroid was added from its 20 mM stock solution ([PA-S]ECS) and in the supernatant of a solution containing er ythroc yte membranes ([PA-S]EC S+M) (see Methods). The concentration of steroid in the membrane ([PA-S]M) was calculated from the difference of [PA-S] in the control solution ([PA-S] EC S) and that in the supernatant containin g m embranes ([PA-S]EC S+M) accordin g to [PA-S]M = ([PA-S]ECS - [PA-S]EC S+M) · Vsolu tion /Vmembrane (where V denotes volume). Data points were fitted to the linear equation of the following form y = 38.8 * x; The partition coeffici ent for P A-S was calculated […]
7.4) determined using the online program CHEMICALIZE (http://www.chemicalize.org/).
Data points represent the mean of two independent measurements. The values of the partition coefficient (log D) of PA-S in the erythrocyte cytoplasmic membrane was calculated assuming 136 μm2 as the mean surface area of a rat erythroc yte and 4 nm as the mean membrane thickness. […]

## CC(=O)[C@H]1CC[C@H]2[C@@H]3CC[C@@H]4C[C@H](OS(=O)(=O)O)CC[C@]4(C)[C@H]3CC[C@]12C [PA-S, 20-oxo-5β-pregnan-3α-yl sulfate]
Calculated for the PA-S IC50 value of 55.7 µM
  equilibrium surface density S: 4.32 10−9 M m −2
Product of [PA-S]membrane and koff
  flux Jout of steroid from the membrane into the aqueous phase: at least 4.3 μM s^−1 m^−2
Y = slope * x
  slope of linear fit of [PA-S]M versus aqueous concentration: 38.8
